# Measured values as given in patent US10857196B2, “Bicyclic peptide ligands and uses thereof” (BicycleTx Limited, priority 2017, dated 2020).
# Numbered stars: 1 amine (or outer) side, 2 acyl side, 3 side chain; on linkers, the order of the positions; unused ones are H or OH. Bridge positions count the residues as written; N and C are the ends. Square brackets hold non-standard residues; d marks the D form. Peptide text beside a SMILES is read from it. X8 = O=C(C[*:1])NCCn1c(=O)n(CCNC(=O)C[*:2])c(=O)n(CCNC(=O)C[*:3])c1=O; X7 = O=S(=O)(CC[*:1])N1CCN(S(=O)(=O)CC[*:2])CCN(S(=O)(=O)CC[*:3])CC1; X6 = O=S(=O)(CC[*:1])c1cc(S(=O)(=O)CC[*:2])cc(S(=O)(=O)CC[*:3])c1; X1 = O=C(CC[*:1])N1CC23CN(C(=O)CC[*:2])CC2(C1)CN(C(=O)CC[*:3])C3; X9 = O=C(C[*:1])N1CCOCCN(C(=O)C[*:2])CCOCCN(C(=O)C[*:3])CCOCC1; X3 = O=C(C[*:1])N1CC23CN(C(=O)C[*:2])CC2(C1)CN(C(=O)C[*:3])C3; X2 = O=C(CC[*:1])N1CCN(C(=O)CC[*:2])CCN(C(=O)CC[*:3])CC1; X5 = O=C(C[*:1])N1CCN(C(=O)C[*:2])CCN(C(=O)C[*:3])CC1; X4 = O=C(C[*:1])NCCN(CCNC(=O)C[*:2])CCNC(=O)C[*:3]; 1Nal = N[C@@H](Cc1cccc2ccccc12)C(=O)O; Tle = CC(C)(C)[C@H](N)C(=O)O
# Molecular target: CAIX (Homo sapiens, UniProt Q16790)
# Experiment: CAIX competition binding assay (competition fluorescence polarization)
# Conditions: fluorescent ligand A-(CAECWIDGWVPC)-A-Sar6-K(Fl)
# Procedure: CAIX Competition Binding Assay Affinity of the peptides of the invention for human CAIX (Ki) was determined using a competition fluorescence polarization assay analogous to that described in Dubois et al. (2011) Radiotherapy and Oncology 99(3), 424-43 using A-(CAECWIDGWVPC)-A-Sar6-K(Fl) (SEQ ID NO: 5) as the fluorescent ligand.
# A Ki value designated “A” denotes a Ki of ≤50 nM; a Ki value designated “B” denotes a K, of >50 nM and ≤100 nM; a Ki value designated “C” denotes a Ki of >100 nM and ≤1,000 nM; and a Ki value designated “D” denotes a Ki of >1,000 nM.
row,Ki,Structure (SMILES)
1,0.05 to 0.1 µM,CC(C)[C@@H]1NC(=O)[C@H](Cc2c[nH]c3ccccc23)NC(=O)[C@@H]2CSCC(=O)NCCn3c(=O)n(c(=O)n(c3=O)CCNC(=O)CSC[C@H](NC(=O)[C@H](C)NC(=O)CN(C)C(=O)CN(C)C(=O)CN(C)C(=O)CN(C)C(=O)CN(C)C(=O)CN(C)C(=O)CN(C)C(=O)CN(C)C(=O)CN(C)C(=O)CN(C)C(=O)CCN)C(=O)N[C@@H]([C@@H](C)O)C(=O)N[C@@H](CCC(=O)O)C(=O)N2)CCNC(=O)CSC[C@@H](C(=O)O)NC(=O)[C@@H]2CCCN2C(=O)[C@H](C(C)C)NC(=O)[C@H](Cc2c[nH]c3ccccc23)NC(=O)CNC(=O)[C@H](CC(=O)O)NC1=O [Compound I-19]
2,0.1 to 1 µM,CC(C)[C@@H]1NC(=O)[C@H](Cc2c[nH]c3ccccc23)NC(=O)[C@@H]2CSCC(=O)N3CCN(CCN(CC3)C(=O)CSC[C@H](NC(=O)[C@H](C)NC(=O)CN(C)C(=O)CN(C)C(=O)CN(C)C(=O)CN(C)C(=O)CN(C)C(=O)CN(C)C(=O)CN(C)C(=O)CN(C)C(=O)CN(C)C(=O)CN(C)C(=O)CCN)C(=O)N[C@@H]([C@@H](C)O)C(=O)N[C@@H](CCC(=O)O)C(=O)N2)C(=O)CSC[C@@H](C(N)=O)NC(=O)[C@@H]2CCCN2C(=O)[C@H](C(C)C)NC(=O)[C@H](Cc2c[nH]c3ccccc23)NC(=O)CNC(=O)[C@H](CC(=O)O)NC1=O [Compound I-21]

# Molecular target: MT1-MMP hemopexin domain (Homo sapiens, UniProt P50281)
# Experiment: Direct binding fluorescence polarization (anisotropy) assay
# Conditions: not given
# Procedure: Direct Binding Fluorescence Polarization or Anisotropy Assays are performed by titrating a constant concentration of fluorescent tracer (here, the fluoresceinated bicyclic peptide to be studied) with its binding partner (here, the MT1-MMP hemopexin domain). As the concentration of binding partner increases during the titration, the polarization signal changes in proportion to the fraction of bound and unbound material. This allows determination of […] (Kd) quantitatively. Assay data can be fit using standard ligand binding equations.
# Typically, concentrations of the tracer are ideally well below the Kd of the tracer:titrant pair, and concentrations chosen are usually at ˜1 nM or less. The titrant (binding partner) concentration is varied from 0.1 nM up to typically 5 μM. The range is chosen such that the maximum change in fluorescent polarization can be observed. Buffers employed are phosphate buffered saline in the presence of 0.01% Tween. Experiments were run in black 384 well low-bind/low volume plates (Corning 3820), and the fluorescent polarization signal was measured using a BMG Pherastar FS plate reader. Fluorescent tracers referred to in the text are bicyclic peptides that have been fluoresceinated using 5,6-carboxyfluorescein. Fluoresceination may be performed on the N-terminal amino group of the peptide, which is separated from the bicycle core sequence by a sarcosine spacer (usually Sar5). This can be done during Fmoc solid phase synthesis or post-synthetically (after cyclization with the molecular scaffold reagent and purification) if the N-terminal amino group is unique to the peptide. Fluoresceination can also be performed on the C-terminus, usually on a Lysine introduced as the first C-terminal residue, which is then separated from the bicycle core sequence by a sarcosine spacer (usually Sar6). Thus, N-terminal tracers can have a molecular format described as Fluo-Gly-Sar5-A(BicycleCoreSequence), and (BicycleCoreSequence)-A-Sar6-K(Fluo) for a C-terminally fluoresceinated construct.
# Fluorescent tracers used in the Examples are A-(17-69)-A-Sar6-K(Fluo), A-(17-69-07)-A-Sar6-K(Fluo), and A-(17-69-12)-A-Sar6-K(Fluo). Due to the acidic nature of the 17-69 fluorescent peptides, they were typically prepared as concentrated DMSO stocks, from which dilution were prepared in 100 mM Tris pH 8 buffer.
# Results from the direct binding fluorescence polarization (anisotropy) assays is depicted in Table 3, below. A K, value designated “A” denotes a Ki of ≤50 nM; a Ki value designated “B” denotes a Ki of >50 nM and ≤100 nM; a Ki value designated “C” denotes a Ki of >100 nM and ≤1,000 nM; and a Ki value designated “D” denotes a Ki of >1,000 nM.
row,Structure (SMILES),Ki
1,C[C@H](N)C(=O)N[C@H]1CSCC(=O)NCCn2c(=O)n3c(=O)n(c2=O)CCNC(=O)CSC[C@H](NC(=O)[C@@H](C)NC(=O)[C@H](Cc2cccc4ccccc24)NC(=O)[C@H](CCC(=O)O)NC(=O)[C@H](CC(N)=O)NC(=O)[C@@H](C)NC1=O)C(=O)N[C@@H](CCC(=O)O)C(=O)N[C@@H](CC(=O)O)C(=O)N[C@@H](Cc1ccccc1)C(=O)N[C@@H](Cc1ccc(O)cc1)C(=O)N[C@@H](CC(=O)O)C(=O)N[C@@H](C(C)(C)C)C(=O)N[C@H](C(N)=O)CSCC(=O)NCC3 [Compound I-52] (H-AC[dA]NE[1Nal][dA]CEDFYD[Tle]C-NH2; linker 2-8-15 via X8),0.1 to 1 µM
2,C[C@H](N)C(=O)N[C@H]1CSCC(=O)N2CCOCCN3CCOCCN(CCOCC2)C(=O)CSC[C@H](NC(=O)[C@@H](C)NC(=O)[C@H](Cc2cccc4ccccc24)NC(=O)[C@H](CCC(=O)O)NC(=O)[C@H](CC(N)=O)NC(=O)[C@@H](C)NC1=O)C(=O)N[C@@H](CCC(=O)O)C(=O)N[C@@H](CC(=O)O)C(=O)N[C@@H](Cc1ccccc1)C(=O)N[C@@H](Cc1ccc(O)cc1)C(=O)N[C@@H](CC(=O)O)C(=O)N[C@@H](C(C)(C)C)C(=O)N[C@H](C(N)=O)CSCC3=O [Compound I-58] (H-AC[dA]NE[1Nal][dA]CEDFYD[Tle]C-NH2; linker 2-8-15 via X9),0.05 to 0.1 µM
3,C[C@H](N)C(=O)N[C@H]1CSCCS(=O)(=O)N2CCN3CCN(CC2)S(=O)(=O)CCSC[C@@H](NC(=O)[C@@H](C)NC(=O)[C@H](Cc2cccc4ccccc24)NC(=O)[C@H](CCC(=O)O)NC(=O)[C@H](CC(N)=O)NC(=O)[C@@H](C)NC1=O)C(=O)N[C@@H](CCC(=O)O)C(=O)N[C@@H](CC(=O)O)C(=O)N[C@@H](Cc1ccccc1)C(=O)N[C@@H](Cc1ccc(O)cc1)C(=O)N[C@@H](CC(=O)O)C(=O)N[C@@H](C(C)(C)C)C(=O)N[C@H](C(N)=O)CSCCS3(=O)=O [Compound I-59] (H-AC[dA]NE[1Nal][dA][dC]EDFYD[Tle]C-NH2; linker 2-8-15 via X7),> 1 µM
4,C[C@H](N)C(=O)N[C@H]1CSCC(=O)NCCN2CCNC(=O)CSC[C@@H](C(=O)O)NC(=O)[C@H](C(C)(C)C)NC(=O)[C@H](CC(=O)O)NC(=O)[C@H](Cc3ccc(O)cc3)NC(=O)[C@H](Cc3ccccc3)NC(=O)[C@H](CC(=O)O)NC(=O)[C@H](CCC(=O)O)NC(=O)[C@H](CSCC(=O)NCC2)NC(=O)[C@@H](C)NC(=O)[C@H](Cc2cccc3ccccc23)NC(=O)[C@H](CCC(=O)O)NC(=O)[C@H](CC(N)=O)NC(=O)[C@@H](C)NC1=O [Compound I-60] (H-AC[dA]NE[1Nal][dA]CEDFYD[Tle]C-OH; linker 2-8-15 via X4),0.1 to 1 µM
5,C[C@H](N)C(=O)N[C@H]1CSCCS(=O)(=O)c2cc3cc(c2)S(=O)(=O)CCSC[C@@H](NC(=O)[C@@H](C)NC(=O)[C@H](Cc2cccc4ccccc24)NC(=O)[C@H](CCC(=O)O)NC(=O)[C@H](CC(N)=O)NC(=O)[C@@H](C)NC1=O)C(=O)N[C@@H](CCC(=O)O)C(=O)N[C@@H](CC(=O)O)C(=O)N[C@@H](Cc1ccccc1)C(=O)N[C@@H](Cc1ccc(O)cc1)C(=O)N[C@@H](CC(=O)O)C(=O)N[C@@H](C(C)(C)C)C(=O)N[C@H](C(N)=O)CSCCS3(=O)=O [Compound I-61] (H-AC[dA]NE[1Nal][dA][dC]EDFYD[Tle]C-NH2; linker 2-8-15 via X6),≤ 0.05 µM

# The remaining lines, values ahead:
row,Ki,Structure (SMILES)
1,≤ 0.05 µM,C[C@H](N)C(=O)N[C@H]1CSCC(=O)N2CCN3CCN(CC2)C(=O)CSC[C@H](NC(=O)[C@@H](C)NC(=O)[C@H](Cc2cccc4ccccc24)NC(=O)[C@H](CCC(=O)O)NC(=O)[C@H](CC(N)=O)NC(=O)[C@@H](C)NC1=O)C(=O)N[C@@H](CCC(=O)O)C(=O)N[C@@H](CC(=O)O)C(=O)N[C@@H](Cc1ccccc1)C(=O)N[C@@H](Cc1ccc(O)cc1)C(=O)N[C@@H](CC(=O)O)C(=O)N[C@@H](C(C)(C)C)C(=O)N[C@H](C(N)=O)CSCC3=O [Compound I-54] (H-AC[dA]NE[1Nal][dA]CEDFYD[Tle]C-NH2; linker 2-8-15 via X5)
2,0.05 to 0.1 µM,C[C@H](N)C(=O)N[C@H]1CSCCC(=O)N2CCN3CCN(CC2)C(=O)CCSC[C@H](NC(=O)[C@@H](C)NC(=O)[C@H](Cc2cccc4ccccc24)NC(=O)[C@H](CCC(=O)O)NC(=O)[C@H](CC(N)=O)NC(=O)[C@@H](C)NC1=O)C(=O)N[C@@H](CCC(=O)O)C(=O)N[C@@H](CC(=O)O)C(=O)N[C@@H](Cc1ccccc1)C(=O)N[C@@H](Cc1ccc(O)cc1)C(=O)N[C@@H](CC(=O)O)C(=O)N[C@@H](C(C)(C)C)C(=O)N[C@H](C(N)=O)CSCCC3=O [Compound I-55] (H-AC[dA]NE[1Nal][dA]CEDFYD[Tle]C-NH2; linker 2-8-15 via X2)
3,0.1 to 1 µM,C[C@H](N)C(=O)N[C@H]1CSCCC(=O)N2CC34CN5CC3(C2)CN(C4)C(=O)CCSC[C@H](NC(=O)[C@@H](C)NC(=O)[C@H](Cc2cccc3ccccc23)NC(=O)[C@H](CCC(=O)O)NC(=O)[C@H](CC(N)=O)NC(=O)[C@@H](C)NC1=O)C(=O)N[C@@H](CCC(=O)O)C(=O)N[C@@H](CC(=O)O)C(=O)N[C@@H](Cc1ccccc1)C(=O)N[C@@H](Cc1ccc(O)cc1)C(=O)N[C@@H](CC(=O)O)C(=O)N[C@@H](C(C)(C)C)C(=O)N[C@H](C(N)=O)CSCCC5=O [Compound I-56] (H-AC[dA]NE[1Nal][dA]CEDFYD[Tle]C-NH2; linker 2-8-15 via X1)
4,0.1 to 1 µM,C[C@H](N)C(=O)N[C@H]1CSCC(=O)N2CC34CN5CC3(C2)CN(C4)C(=O)CSC[C@H](NC(=O)[C@@H](C)NC(=O)[C@H](Cc2cccc3ccccc23)NC(=O)[C@H](CCC(=O)O)NC(=O)[C@H](CC(N)=O)NC(=O)[C@@H](C)NC1=O)C(=O)N[C@@H](CCC(=O)O)C(=O)N[C@@H](CC(=O)O)C(=O)N[C@@H](Cc1ccccc1)C(=O)N[C@@H](Cc1ccc(O)cc1)C(=O)N[C@@H](CC(=O)O)C(=O)N[C@@H](C(C)(C)C)C(=O)N[C@H](C(N)=O)CSCC5=O [Compound I-57] (H-AC[dA]NE[1Nal][dA]CEDFYD[Tle]C-NH2; linker 2-8-15 via X3)
